Measured values published in ChEMBL document CHEMBL2346586, “N-substituted azaindoles as potent inhibitors of Cdc7 kinase” (Bioorg Med Chem Lett, 2013).

What was measured:
[1] = molecular target: T1, Cell division cycle 7-related protein kinase (Homo sapiens, UniProt O00311); experiment: Inhibition of CDC7 (unknown origin)
[2] = molecular target: Cyclin-dependent kinase 2 (Homo sapiens, UniProt P24941); experiment: Inhibition of CDK2 (unknown origin)
[3] = Intrinsic clearance in human liver microsomes; assay type: ADME, Microsome; settings: read-out: CLH
[4] = Intrinsic clearance in rat liver microsomes; assay type: ADME, Microsome; settings: read-out: CLH
[5] = molecular target: T1, Cell division cycle 7-related protein kinase; experiment: Inhibition of CDC7 in human HCT116 cells assessed as MCM2 phosphorylation; assay type: cell-based, HCT-116
Homo sapiens = species on record: Homo sapiens; experiment: Selectivity ratio of IC50 for CDK2 (unknown origin) to IC50 for CDC7 (unknown origin)

T1 sequence (O00311 whole entry): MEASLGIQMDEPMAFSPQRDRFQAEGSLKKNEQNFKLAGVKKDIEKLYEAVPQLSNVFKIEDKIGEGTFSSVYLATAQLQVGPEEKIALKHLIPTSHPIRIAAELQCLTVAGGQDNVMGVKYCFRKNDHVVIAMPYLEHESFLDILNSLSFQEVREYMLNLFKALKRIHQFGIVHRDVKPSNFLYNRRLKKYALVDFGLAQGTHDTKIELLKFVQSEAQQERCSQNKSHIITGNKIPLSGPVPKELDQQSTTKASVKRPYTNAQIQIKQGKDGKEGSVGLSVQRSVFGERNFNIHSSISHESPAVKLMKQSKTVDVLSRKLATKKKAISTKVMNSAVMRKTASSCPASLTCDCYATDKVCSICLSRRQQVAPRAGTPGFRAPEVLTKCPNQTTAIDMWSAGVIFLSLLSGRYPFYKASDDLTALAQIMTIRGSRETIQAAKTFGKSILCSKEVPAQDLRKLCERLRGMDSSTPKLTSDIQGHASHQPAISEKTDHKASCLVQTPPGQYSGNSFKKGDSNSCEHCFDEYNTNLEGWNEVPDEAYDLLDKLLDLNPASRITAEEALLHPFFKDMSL

IC50 [1] | IC50 [2] | microsomal CLint [3] | microsomal CLint [4] | IC50 [5] | Ratio IC50 (Homo sapiens) | SMILES
580 nM | 0.55 µM |  |  |  |  | Nc1nccc(-n2cc(-c3cc[nH]n3)c3cnccc32)n1
980 nM | 3.7 µM | 62 µL/min/mg | 101 µL/min/mg |  |  | Nc1nccc(-n2ccc3cnccc32)n1
11 nM | 0.11 µM |  |  |  |  | Nc1nccc(-n2cc(-c3ccccc3Cl)c3cnccc32)n1
2700 nM | > 83 µM |  |  |  |  | N#Cc1ccc2ccn(-c3cc(N)ncn3)c2c1
9000 nM | 39 µM | 201 µL/min/mg | 122 µL/min/mg | > 50 µM |  | N#Cc1ccc2ccn(-c3ccnc(N)c3)c2c1
160 nM | 0.16 µM |  |  |  |  | Nc1nccc(-n2cc(C3=CCOCC3)c3cnccc32)n1
930 nM | 45.1 µM | 134 µL/min/mg | 64 µL/min/mg |  |  | Nc1nccc(-n2ccc3ccncc32)n1
75 nM | 16.5 µM | 430 µL/min/mg | 124 µL/min/mg | 5 µM | 220 | N#Cc1ccc2ccn(-c3ccnc(N)n3)c2c1
66 nM | 3.7 µM |  |  |  | 56 | Nc1nccc(-n2ccc3ccc(Cl)cc32)n1
8500 nM | > 29.1 µM |  |  |  |  | N#Cc1ccc2c(ccn2-c2ccnc(N)n2)c1
5300 nM | > 83 µM | 108 µL/min/mg | 64 µL/min/mg |  |  | N#Cc1cnc2ccn(-c3ccnc(N)n3)c2c1
1500 nM | > 83 µM |  |  |  |  | N#Cc1ccc2ccn(-c3ccncn3)c2c1
30 nM | > 83 µM | 30 µL/min/mg | 102 µL/min/mg | 2.3 µM | > 2700 | Nc1nccc(-n2cc(-c3cccnc3Cl)c3cnc(Cl)cc32)n1
25 nM | 2.7 µM |  |  |  |  | CNc1nccc(-n2ccc3ccc(C#N)cc32)n1
120 nM | 0.1 µM |  |  |  |  | Nc1nccc(-n2cc(-c3ccoc3)c3cnccc32)n1
760 nM | 10 µM |  |  |  |  | C#Cc1ccc2ccn(-c3ccnc(N)n3)c2c1
1240 nM | > 44 µM | 94 µL/min/mg | 49 µL/min/mg |  |  | N#Cc1cc2c(ccn2-c2ccnc(N)n2)cn1
9 nM | > 83 µM | 34 µL/min/mg | 46 µL/min/mg | 1.37 µM |  | N#Cc1ccc2ccn(-c3cc(N)ncn3)c2n1

IC50 [1] | IC50 [2] | microsomal CLint [3] | microsomal CLint [4] | IC50 [5] | Ratio IC50 (Homo sapiens) | SMILES
350 nM | 8.2 µM |  |  |  |  | Nc1nccc(-n2ccc3ccc(Br)cc32)n1
160 nM | > 83 µM |  |  |  | > 500 | Nc1nccc(-n2cc(-c3cccc(Cl)c3)c3cnccc32)n1
160 nM | 1.1 µM |  |  |  | 7 | Nc1nccc(-n2cc(-c3cccnc3)c3cnccc32)n1
1100 nM | 17 µM |  |  |  |  | Nc1nccc(-n2ccc3ccc(C(F)(F)F)cc32)n1
10400 nM | 45 µM |  |  |  |  | N#Cc1ccc2ccn(-c3cccc(N)n3)c2c1
360 nM | 38 µM | 104 µL/min/mg | 134 µL/min/mg | > 50 µM | > 100 | Nc1nccc(-n2ccc3cnc(Cl)cc32)n1
250 nM | 0.16 µM |  |  |  |  | Nc1nccc(-n2cc(-c3ccncc3)c3cnccc32)n1
82 nM | > 30.6 µM |  |  |  |  | Nc1nccc(-n2ccc3ccc([N+](=O)[O-])cc32)n1
12600 nM | 21 µM | 60 µL/min/mg | 50 µL/min/mg |  |  | Nc1nccc(-n2ccc3ncccc32)n1
8800 nM | > 29 µM |  |  |  |  | N#Cc1ccc2ccn(-c3nccc(N)n3)c2c1
156 nM | 34 µM |  |  |  |  | Nc1nccc(-n2ccc3ccc(F)cc32)n1
330 nM | 0.06 µM |  |  |  |  | Nc1nccc(-n2cc(-c3ccc(Cl)cc3)c3cnccc32)n1
104 nM | 0.31 µM |  |  |  | 3 | Nc1nccc(-n2cc(-c3ccccc3)c3cnccc32)n1
4700 nM | 28.5 µM | 387 µL/min/mg | 375 µL/min/mg | > 50 µM |  | Nc1nccc(-n2ccc3ccccc32)n1
26700 nM | 42 µM | 338 µL/min/mg | 282 µL/min/mg | > 50 µM |  | Nc1nccc(-n2ccc3cccnc32)n1
3300 nM | 5 µM |  |  |  |  | Nc1nccc(-n2ccc3ccc(O)cc32)n1
7 nM | 0.31 µM | 21 µL/min/mg | 72 µL/min/mg | 0.85 µM | 44 | Nc1nccc(-n2cc(-c3cccnc3Cl)c3cnccc32)n1
